Calls of active or inactive are those of the source. The calls are words filed in the database; no cut-off is given here.
Assays:
Escherichia coli [1] = test: Induction of Cu(2)-mediated pBR322 DNA cleavage assessed as conversion of supercoiled to relaxed open circle at 50 to 300 uM by agarose gel electrophoresis
Escherichia coli [2] = test: Induction of Cu(2)-mediated pBR322 DNA cleavage assessed as conversion of supercoiled to relaxed open circle at 300 uM by agarose gel electrophoresis in presence of catalase
Escherichia coli [3] = test: Induction of Cu(2)-mediated pBR322 DNA cleavage assessed as conversion of supercoiled to relaxed open circle at 300 uM by agarose gel electrophoresis in presence of superoxide dismutase
Escherichia coli [4] = test: Induction of Cu(2)-mediated pBR322 DNA cleavage assessed as conversion of supercoiled to relaxed open circle at 300 uM by agarose gel electrophoresis in presence of potassium iodide

| Activity (Escherichia coli [1]) | Activity (Escherichia coli [2]) | Activity (Escherichia coli [3]) | Activity (Escherichia coli [4]) | Structure (SMILES) |
| --- | --- | --- | --- | --- |
| inactive | – | – | – | C=C(C)CC[C@@H](C[C@@H]1C[C@]2(CC=C(C)C)C(=O)[C@@](C(=O)c3ccc(O)c(O)c3)(C(=O)C3=C2O[C@@H](C(C)(C)O)C3)C1(C)C)C(=C)C |
| Active | Active | Active | Active | CC(C)=CC[C@]12C[C@H](O)C(C)(C)O[C@@H](C(C)(C)O)C[C@@](O)(C(=O)C(C(=O)C(C)C)=C1O)C2=O |
| – | Active | Active | Active | C=C(C)CC[C@@H](C[C@H]1C[C@@]2(CC=C(C)C)C(=O)C(CC=C(C)C)=C(O)[C@@](C(=O)c3ccc(O)c(O)c3)(C2=O)C1(C)C)C(=C)C (stereo in doubt; 2) |
| – | Active | Active | Active | C=C(C)CC[C@@H](C[C@H]1C[C@@]2(CC=C(C)C)C(=O)C(CC=C(C)C)=C(O)[C@@](C(=O)c3ccc(O)c(O)c3)(C2=O)C1(C)C)C(=C)C (stereo in doubt; 2a) |

Source: ChEMBL document CHEMBL1144704, “Phloroglucinols with prooxidant activity from Garcinia subelliptica” (J Nat Prod, 2008)
